We go through nine molecules from patent US20070043512A1, “Therapeutic and prophylactic compositions and uses therefor” (priority 2003, published 2007).

Where “and” joins values, the source holds several entries; their conditions need not be identical. Equal values may be shown once. Entries after “also recorded” stand apart in the source; their conditions may differ.

Type in all cases: cell-based, human
For assay [1], the system named is aP2 gene expression. Put plainly: Real-time PCR, aP2 gene expression in NHBE cells. The following applies: for Effect on aP2 expression: NHBE (HBE) cells, stimuli for 18 h, real-time PCR (FIG. 2); for Fold-Change aP2 gene expression (real-time PCR): NHBE cells, 10 ng/ml cytokine, 18 h, vs unstimulated, mean of two RNA sets used in arrays. The procedure: (§1) When NHBE cells were 80% confluent and between passage 7 and 8, they were washed in PBS (Gibco) and starved for 24 h in Clonetics bronchial epithelial cell basal medium (BEBM) containing 0.1% w/v BSA.
(§2) Total RNA was isolated from cells using the RNeasy Total RNA Isolation Kit (Qiagen, Chatswort, Calif.) or Trizol (Invitrogen, CA) as per the manufacturer's instructions.
(§3) cDNA was made using Reverse-IT RTase Blend Kit (ABgene, UK) or Avian myeloblastosis virus Reverse Transcriptase (Promega, Madison, Wis.) according to manufacturer's instructions. Oligo-p(dt)15 primer (Roche Molecular Biochemicals) was used at 1 μM in both cDNA preparation methods. Following cDNA synthesis, 1 μl of cDNA template was used for each PCR. Real-time PCR was conducted using Light Cycler-FastStart DNA Master SYBR Green I kit (Roche Molecular Biochemicals) according to manufacturer's specifications using 2 mM MgCl2 and 1 μM primers. Human aP2 forward and reverse primers and FABP-5 forward and primers were designed from Genbank sequences using Primer3 software (Rozen and Skaletsky, Methods Mol. Biol. 132: 365-386, 2000):
(§4) After an initial denaturation for 10 min at 95° C., the samples were run for 40 cycles at 95° C. (15 s), 63° C. (5 s), and 72° C. (10 s). At the end of each cycle, the fluorescence was measured in a single step in channel F1. After the 40th cycle, the specimens were heated to 95° C. and cooled to 65° C. for 15 s. All heating and cooling steps were performed with a slope of 20° C./sec. The temperature was then raised to 95° C. at a rate of 0.1° C./sec and fluorescence was measured continuously (channel F1) to obtain a melting curve for the PCR products. Each gene was normalized to a housekeeping gene GAPDH before fold change was calculated (using crossing point values) to account for variations between different samples. The aP2 PCR product was confirmed by size on a 2% w/v agarose gel and by sequencing at Sydney University Prince Alfred Macromolecular Analysis Centre, NSW, Australia.
Using the same RNA samples as were used for the microarray experiments, aP2 gene expression was analysed using real-time PCR. […] Data are the mean from the two sets of RNA that were used in the array experiments.

For assay [2], the system named is aP2 gene expression. Description: Affymetrix U95A microarray, aP2 gene expression in stimulated NHBE cells. The arrangement: key to Regulation of aP2 gene expression: I, increased; D, decreased; NC, no change. The following applies: 18 h; for Fold-Change aP2 gene expression: NHBE cells, 10 ng/ml cytokine, vs unstimulated cells, mean of both micro-array experiments; for Fold change aP2 gene expression / Regulation of aP2 gene expression: NHBE, 10 ng/ml, vs ctrl, individual array comparisons. The procedure:
NHBE primary cell lines were purchased from Clonetics (San Diego, Calif.). Both NHBE cell lines, lot 8F1142 and 7F1482, were isolated […]. NHBE cells were maintained in Clonetics bronchial epithelial growth media (BEGM), which included supplements of 52 μg/ml bovine pituitary extract, 0.5 μg/ml hydrocortisone, 0.5 μg/ml human recombinant epidermal growth factor, 0.5 μg/ml epinephrine, 10 μg/ml transferrin, 5 μg/ml insulin, 0.1 μg/ml retinoic acid, 6.5 μg/ml triiodothryonine, 50 μg/ml gentamycin and 50 μg/ml amphotericin B (Clonetics). Medium was replaced every three to four days. When confluent, cells were subcultured at a ratio of 1:3.
as §1
A preliminary time course experiment in IL-4 and IL-13 stimulated NHBE identified 18 h as a time point associated with strong gene regulation and this time point was selected for subsequent analysis. Gene expression in unstimulated- and IL-4- and IL-13-stimulated NHBE was measured using Affymetrix U95A Gene Chips. The experiment was performed twice, using two independent NHBE lines. One novel finding was increased expression of the adipocyte gene aP2 in the cytokine stimulated NHBE cells (Table 3).
NHBE cells were stimulated with 10 ng/ml IL-4 or 10 ng/ml IL-13. After 18 h, gene expression in these cells, and in unstimulated NHBE cells, was analysed using Affymetrix U95A chips. The fold-change in gene expression following cytokine stimulation compared to unstimulated NHBE cells is shown. Data are the mean of both micro-array experiments.
(§5) Depending on the quantity of RNA available, cRNA was prepared according to the GeneChip Expression Analysis Technical Manual (Array experiment 1; Affymetrix, Santa Clara, Calif.) or the cRNA methods published in Baugh et al., Nucleic Acids Res. 29(5): E29, 2001 (Array experiment 2). The GeneChip Expression Analysis protocol involved cDNA synthesis from 20 μg of total RNA using a poly(T) primer containing a T7 RNA polymerase promoter (Geneworks, Australia):
(§6) cRNA was transcribed from cDNA and biotinylated using the BioArray High Yield RNA Transcript Labeling Kit (Enzo Diagnostics, Farmingdale, N.Y.). Twenty micrograms of cRNA was fragmented by heating at 94° C. for 35 min in fragmentation buffer (40 mM Tris acetate (pH 8.1), 125 mM KOAc, 30 mM MgOAc) prior to hybridization. For the small-scale cRNA amplification (Baugh et al., 2001, supra), cDNA synthesis volumes were different from the GeneChip Expression Analysis Technical Manual but reaction component concentrations, incubation times and temperatures were conserved. Five hundred nanograms of RNA was used and 15 μg cRNA was fragmented prior to hybridization.
(§7) Hybridization cocktails were then made by adding fragmented cRNA, control cRNAs, grid alignment oligonucleotides and blocking reagents. These mixtures were hybridised overnight (˜16 h) to individual Test3 (Affymetrix) arrays at 45° C., under constant rotation at 60 rpm. Washing and staining of the hybridized arrays were performed by an Affymetrix Fluidics Station, according to the manufacturer's protocols. Fluorescent signals were measured on the arrays using the Agilent GeneArray Laser Scanner and gene transcript levels were determined and scaled to 150 using algorithms in MicroArray Analysis Suite Software 5.0 (Affymetrix). For each array experiment, the hybridization cocktails met the test three criteria (background less then 150, GAPDH and β-actin 3′/5′ ratios less then three and similar scaling factors between samples), and were used to probe Affymetrix U95A GeneChips. Relative mRNA expression levels on the IL-4 and IL-13 stimulated NHBE arrays were expressed as plus or minus fold changes when compared to the control NHBE array.
Regulation of aP2 gene expression was examined for all comparison arrays in which aP2 expression was detected. […]

Assay [3] relates to FABP-5 gene expression. Put plainly: Microarray, FABP-5 gene expression in NHBE cells. The arrangement: key to Regulation of FABP-5 gene expression: I, increased; D, decreased; NC, no change. The following applies: for Effect on FABP-5 (mal1) expression, microarray: NHBE (HBE) cells; for Fold change FABP-5 gene expression / Regulation of FABP-5 gene expression: NHBE, 10 ng/ml, 18 h, vs ctrl. As to the method: as §1, §5, §6, §7
Positive/negative fold change indicates greater/lesser gene expression in the first-named array, respectively. I, increased; D, decreased; NC, no change. Where the same type of array comparison is listed more than once, this represents repeat experiments.

Assay [4] has as its system FABP-5 gene expression. Put plainly: Microarray, FABP-5 gene expression in bronchial smooth muscle cells (BSMC). The arrangement: key to Regulation of FABP-5 gene expression: I, increased; D, decreased; NC, no change. The note with it: 10 ng/ml, 18 h, vs ctrl.
For assay [5], the system named is FABP-5 gene expression. Description: Real-time PCR, FABP-5 (mal1) gene expression in NHBE cells. The following applies: for Effect on FABP-5 (mal1) expression, real-time PCR: NHBE (HBE) cells, 10 ng/ml (FIG. 3). As to the method:
as §1, §2, §3, §4

Assay [6] deals with aP2 protein expression. Put plainly: Immunofluorescent staining of aP2 protein in NHBE cells. The following applies: NHBE (HBE) cells, 10 ng/ml, 24 h. The procedure: NHBE cells were grown in chamber slides and treated with culture medium alone, or with medium supplemented with 10 ng/ml IL-4 or 10 ng/ml IL-13. After 24 h, the culture medium was removed and the cells were air-dried for 30 min. The cells were fixed in 1% v/v paraformaldehyde for 20 min at room temperature. The slides were washed in PBS and the cells were permeabilised in 70% v/v ethanol at −20° C. for 20 min. The cells were washed in PBS-Triton for 5 min, and then blocked for 60 min with 10% v/v normal goat serum in 2% v/v BSA/Tris-buffered saline (TBS). The normal goat serum was removed and […] (1:1000 dilution in 2% BSA/TBS) or rabbit isotype control (1:4 dilution; Zymed) was added. The slides were incubated overnight at room temperature, washed 3×5 min in TBS-Triton (TBS-T), and incubated with secondary Ab (TRITC-conjugated anti-rabbit Ig; dilution 1:100) for 1 h at room temperature. The slides were washed in TBS-T for 5 min, and cover-slipped after the addition of Vectashield. The slides were examined on a confocal microscope.

Assay [7] relates to aP2 expression. Description: aP2 expression in THP-1 cells. The following applies: 10 ng/ml IL-4, 10 ng/ml IL-13 or 28 ng/ml IFN-γ (FIG. 6). As to the method:
FIG. 6 is a graphical representation showing aP2 expression in THP-1 cells stimulated with (A) 10 ng/ml IL-4, 10 ng/ml IL-13 or 28 ng/ml IFN-γ or (B) 50 ng/ml PMA. The data are mean±SEM from three independent experiments.
To address this issue, the effect of IL-4, IL-13 and IFN-γ on expression of aP2 in the human monocyte cell line THP-1 was examined.

The subject of assay [8] is FABP-5 gene expression. Description: Microarray, FABP-5 gene expression in synovial fibroblasts (RA/OA synoviocytes). Also noted: key: I, increased; D, decreased; NC, no change. The note with it: 10 ng/ml, 4 h.
For assay [9], the system named is aP2 gene expression. Description: Real-time PCR, aP2 gene expression in NHBE cells. The following applies: NHBE (HBE) cells, subsequent experiment.

`CCCCCCCCCCCCCC(=O)O[C@@H]1[C@@H](C)[C@@]2(O)[C@@H](C=C(CO)C[C@]3(O)C(=O)C(C)=C[C@@H]23)[C@@H]2C(C)(C)[C@]12OC(C)=O` [PMA, phorbol myristate acetate, reference compound]: the “Effect on aP2 expression” value in assay [1] was “slight down-regulation; also recorded: slight downregulation”.

For the molecule “IL-13: allergy-associated type-2 cytokine used as stimulus, 10 ng/ml (BD)”, in assay [2], the “Fold-Change aP2 gene expression” value is 31.8; the “Fold change aP2 gene expression” value was 45.3 and 18.4; the “Regulation of aP2 gene expression” value was “I”. For the same molecule, the “Fold-Change aP2 gene expression (real-time PCR)” value in [1] was found to be 56. Besides, in [3], the “Effect on FABP-5 (mal1) expression, microarray” value was “mildly up-regulated”; the “Fold change FABP-5 gene expression” value is reported as 1.5; the “Regulation of FABP-5 gene expression” value was “I and NC”. Also, in assay [4], the “Fold change FABP-5 gene expression” value is listed as 1.7; the “Regulation of FABP-5 gene expression” value was “NC and I”. For the same molecule, in [5], the “Effect on FABP-5 (mal1) expression, real-time PCR” value was “up-regulated; also recorded: upregulated”. Besides, in [6], the “Intensity of aP2 staining vs unstimulated cells” value is “considerably greater” and the “Nuclear localisation of aP2” value was “significant nuclear localisation”. Besides, in [7], the “Effect on aP2 expression” value is on record as “stimulated aP2 expression”.

In the case of IL-6: cytokine stimulus, 5 ng/ml (BD), the “Effect on aP2 expression” value in assay [1] is “no effect”.

With “IL-1: cytokine Interleukin (IL)-1β used as stimulus, 10 ng/ml”, in [1], the “Effect on aP2 expression” value is listed as “no effect”. In [8] (RA synoviocytes, vs RA ctrl), the “Regulation of FABP-5 gene expression” value is on record as “NC”.

Consider “IL-4: allergy-associated type-2 cytokine used as stimulus, 10 ng/ml (BD)”, for which, in assay [2], the “Fold-Change aP2 gene expression” value is recorded as 33.4; the “Fold change aP2 gene expression” value is 48.5 and 18.4; the “Regulation of aP2 gene expression” value is reported as “I”. The “Fold-Change aP2 gene expression (real-time PCR)” value in [1] was determined as 65. Besides, in assay [3], the “Effect on FABP-5 (mal1) expression, microarray” value is listed as “mildly up-regulated”; the “Fold change FABP-5 gene expression” value is 1.4 and 2; the “Regulation of FABP-5 gene expression” value is “I”. Besides, in assay [8] (RA synoviocytes, vs RA ctrl), the “Regulation of FABP-5 gene expression” value is on record as “NC”. Moreover, the “Effect on FABP-5 (mal1) expression, real-time PCR” value in [5] is “up-regulated; also recorded: upregulated”. In assay [6], the “Intensity of aP2 staining vs unstimulated cells” value is reported as “considerably greater” and the “Nuclear localisation of aP2” value is on record as “significant nuclear localisation”. In addition, the “Effect on aP2 expression” value in assay [7] is reported as “stimulated aP2 expression”.

On to TNFα, for which the “Effect on aP2 expression” value in assay [1] is “no effect”. Moreover, the “Regulation of FABP-5 gene expression” value in [8] (OA synoviocytes, vs OA ctrl) is reported as “NC”; in assay [8] (RA synoviocytes, vs RA ctrl) it was “NC”.

Take “IFN-γ: prototypic type 1 cytokine, 28 ng/ml”: the “Effect on aP2 expression” value in assay [1] is “strongly down-regulated”; in assay [1] (listed as IFNg), “down-regulated”; in assay [1] (listed as IFNγ), “strongly downregulated”; in assay [7], “reduced expression”. Further, in assay [5] (HBE cells, summary statement, method not stated), the “Effect on mal1 expression” value was “down-regulated”.

For the molecule `Cc1cccc(Nc2cc(Cl)nc(SCC(=O)O)n2)c1C` [WY14643], the “Effect on aP2 expression” value in assay [9] is recorded as “little or no effect”.

B1: IL-10: cytokine stimulus, 10 ng/ml (BD) (protein, UniProt P22301 19-178, looked up)
Interleukin-10: SPGQGTQSENSCTHFPGNLPNMLRDLRDAFSRVKTFFQMKDQLDNLLLKESLLEDFKGYLGCQALSEMIQFYLEEVMPQAENQDPDIKAHVNSLGENLKTLRLRLRRCHRFLPCENKSKAVEQVKNAFNKLQEKGIYKAMSEFDIFINYIEAYMTMKIRN
Consider B1, for which the “Effect on aP2 expression” value in assay [1] is given as “no effect”.
